# pIC50: −log10 of the molar value.
# Target: T1, Pol theta (1-899) (Homo sapiens, UniProt O75417)
# T1 construct: Pol theta (1-899) (5 nM) in assay buffer
# Test: Pol theta ATPase activity, NADH oxidation-coupled enzymatic assay (ATPase NADH coupling: Standard Screening: hPolQ)
# Type: biochemical
# Conditions: Pol theta (1-899) 5 nM, NADH oxidation-coupled ATPase assay; compounds of Table 3
# Procedure, shortened: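 Rates of ATP hydrolysis taken from 60-min A340 traces of NADH oxidation via PK/LDH coupling, then fit four-parameter for IC50, Hill slope and max inhibition. Enzyme (5 nM, 1-899) and compounds preincubated 15 min before ATP 100 μM and 50-thymine ssDNA 300 nM (stock, equal volume added).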
# T1 sequence (O75417 1-899): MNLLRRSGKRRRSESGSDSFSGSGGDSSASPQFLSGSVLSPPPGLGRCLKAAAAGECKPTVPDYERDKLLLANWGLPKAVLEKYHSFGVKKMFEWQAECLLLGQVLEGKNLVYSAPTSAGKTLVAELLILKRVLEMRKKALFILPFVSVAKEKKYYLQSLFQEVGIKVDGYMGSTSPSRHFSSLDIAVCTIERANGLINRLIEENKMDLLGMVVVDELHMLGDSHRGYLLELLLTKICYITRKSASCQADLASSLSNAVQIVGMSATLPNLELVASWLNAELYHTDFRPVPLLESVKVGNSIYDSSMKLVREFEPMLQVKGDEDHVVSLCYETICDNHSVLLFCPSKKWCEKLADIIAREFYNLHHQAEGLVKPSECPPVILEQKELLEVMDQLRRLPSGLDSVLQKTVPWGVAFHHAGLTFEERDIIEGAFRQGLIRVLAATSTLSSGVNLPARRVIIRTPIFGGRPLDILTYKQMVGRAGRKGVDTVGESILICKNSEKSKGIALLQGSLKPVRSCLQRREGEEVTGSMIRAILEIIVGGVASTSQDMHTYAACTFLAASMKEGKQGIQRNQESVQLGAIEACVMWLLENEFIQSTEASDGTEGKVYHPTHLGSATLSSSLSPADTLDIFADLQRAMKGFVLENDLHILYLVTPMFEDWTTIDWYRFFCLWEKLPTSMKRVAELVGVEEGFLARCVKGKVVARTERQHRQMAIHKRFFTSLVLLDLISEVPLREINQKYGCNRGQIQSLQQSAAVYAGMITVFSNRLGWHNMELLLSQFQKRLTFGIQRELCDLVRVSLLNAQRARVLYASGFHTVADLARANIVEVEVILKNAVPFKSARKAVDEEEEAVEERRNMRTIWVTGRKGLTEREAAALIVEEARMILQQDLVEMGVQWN
row,Structure (SMILES),pIC50
1,"COc1cnc(Cl)cc1-c1cc(C)ncc1C(=O)Nc1nnc(OC2([C@@H]3CCOC3)CC2)s1 (single isomer, unassigned) [Example 299]",≥ 6.70
2,"Cc1cc(-c2cc(Cl)ncc2OC(F)F)c(C(=O)Nc2nnc(O[C@@H]3CCC[C@H](O)C3)s2)cn1 (single isomer, unassigned) [Example 252]",≥ 6.70
3,"COc1nnc(NC(=O)c2cnc(C)cc2-c2cccc(N3CCCCC3)c2)s1 [Example 478, N-(5-methoxy-1,3,4-thiadiazol-2-yl)-6-methyl-4-[3-(piperidin-1-yl)phenyl]pyridine-3-carboxamide]",5.00 to 6.00
4,"CNS(=O)(=O)c1cccc(-c2cc(C)ncc2C(=O)Nc2nnc(OC)s2)c1 [Example 401, N-(5-methoxy-1,3,4-thiadiazol-2-yl)-6-methyl-4-[3-(methylsulfamoyl)phenyl]pyridine-3-carboxamide]",5.00 to 6.00
5,"COc1cnc(Cl)cc1-c1cc(C)ncc1C(=O)Nc1nnc(O[C@@H]2C[C@H](F)CN(C)C2)s1 [Example 267, 2′-chloro-N-(5-(((3R,5S)-5-fluoro-1-methylpiperidin-3-yl)oxy)-1,3,4-thiadiazol-2-yl)-5′-methoxy-6-methyl-[4,4′-bipyridine]-3-carboxamide]",≥ 6.70
6,"COc1nnc(NC(=O)c2cnc(C)cc2-c2cc(Br)c([S@@+](C)[O-])cc2OC)s1 (single isomer, unassigned) [Example 319]",≥ 6.70
7,"COc1nnc(NC(=O)c2cnc(C)cc2-c2cnn(-c3ccccc3)c2C)s1 [Example 456, N-(5-methoxy-1,3,4-thiadiazol-2-yl)-6-methyl-4-(5-methyl-1-phenyl-1H-pyrazol-4-yl)pyridine-3-carboxamide]",5.00 to 6.00
8,"COc1nnc(NC(=O)c2cnc(C)cc2-c2cccc(NS(C)(=O)=O)c2)s1 [Example 400, 4-(3-methanesulfonamidophenyl)-N-(5-methoxy-1,3,4-thiadiazol-2-yl)-6-methylpyridine-3-carboxamide]",5.00 to 6.00

# Other lines, results leading:
row,pIC50,Structure (SMILES)
1,5.00 to 6.00,"COc1nnc(NC(=O)c2cnc(C)cc2-c2cccc(N(C)C)c2)s1 [Example 412, 4-[3-(dimethylamino)phenyl]-N-(5-methoxy-1,3,4-thiadiazol-2-yl)-6-methylpyridine-3-carboxamide]"
2,5.00 to 6.00,"COc1nnc(NC(=O)c2cnc(C)cc2-c2ccc(C(=O)O)cc2)s1 [Example 366, 4-(5-((5-methoxy-1,3,4-thiadiazol-2-yl)carbamoyl)-2-methylpyridin-4-yl)benzoic acid]"
3,5.00 to 6.00,"COc1nnc(NC(=O)c2cnc(C)cc2-c2cnc(C(F)(F)F)c(F)c2)s1 [Example 342, 5-fluoro-N-(5-methoxy-1,3,4-thiadiazol-2-yl)-6′-methyl-6-(trifluoromethyl)-[3,4′-bipyridine]-3′-carboxamide]"
4,6.00 to 6.30,"COc1nnc(NC(=O)c2cnc(C)cc2-c2ccc3c(cnn3C)c2)s1 [Example 449, N-(5-methoxy-1,3,4-thiadiazol-2-yl)-6-methyl-4-(1-methyl-1H-indazol-5-yl)pyridine-3-carboxamide]"
5,5.00 to 6.00,"COc1nnc(NC(=O)c2cnc(C)cc2-c2ccsc2)s1 [Example 388, N-(5-methoxy-1,3,4-thiadiazol-2-yl)-6-methyl-4-(thiophen-3-yl)nicotinamide]"
6,5.00 to 6.00,"COc1nnc(NC(=O)c2cnc(C)cc2-c2cnc3[nH]ncc3c2)s1 [Example 357, N-(5-methoxy-1,3,4-thiadiazol-2-yl)-6-methyl-4-(1H-pyrazolo[3,4-b]pyridin-5-yl)nicotinamide]"
7,6.30 to 6.70,"COc1nnc(NC(=O)c2cnc(C)cc2-c2cc(C)c([S@+](C)[O-])cc2OC)s1 (single isomer, unassigned) [Example 307]"
8,5.00 to 6.00,"COc1nnc(NC(=O)c2cnc(C)cc2-c2ccc3c(c2)OC(F)(F)O3)s1 [Example 349, 4-(2,2-difluoro-2H-1,3-benzodioxol-5-yl)-N-(5-methoxy-1,3,4-thiadiazol-2-yl)-6-methylpyridine-3-carboxamide]"
9,5.00 to 6.00,"COc1nnc(NC(=O)c2cnc(C)cc2-c2ccccc2C#N)s1 [Example 454, 4-(2-cyanophenyl)-N-(5-methoxy-1,3,4-thiadiazol-2-yl)-6-methylpyridine-3-carboxamide]"
10,5.00 to 6.00,"COc1nnc(NC(=O)c2cnc(C)cc2-c2cc(C#N)cc(OC(F)(F)F)c2)s1 [Example 327, 4-[3-cyano-5-(trifluoromethoxy)phenyl]-N-(5-methoxy-1,3,4-thiadiazol-2-yl)-6-methylpyridine-3-carboxamide]"
11,6.00 to 6.30,"COc1nnc(NC(=O)c2cnc(C)cc2-c2ccc(C)cc2C)s1 [Example 386, 4-(2,4-dimethylphenyl)-N-(5-methoxy-1,3,4-thiadiazol-2-yl)-6-methylpyridine-3-carboxamide]"
12,5.00 to 6.00,"COc1nnc(NC(=O)c2cnc(C)cc2-c2cccc(OCC#N)c2)s1 [Example 466, 4-[3-(cyanomethoxy)phenyl]-N-(5-methoxy-1,3,4-thiadiazol-2-yl)-6-methylpyridine-3-carboxamide]"

# Same assay, conditions: Table 4; Pol theta (1-899) 5 nM, ATP, dT50 ssDNA
row,pIC50,Structure (SMILES)
1,≥ 6.70,"COc1cnc(Cl)cc1-c1cc(C)ncc1C(=O)Nc1nnc(O[C@H]2CCOC2)s1 [Example 22, (S)-2′-chloro-5′-methoxy-6-methyl-N-(5-((tetrahydrofuran-3-yl)oxy)-1,3,4-thiadiazol-2-yl)-(4,4′-bipyridine)-3-carboxamide]"
2,≥ 6.70,"COc1nnc(NC(=O)c2cnc(C)cc2-c2cc(C)ncc2Cl)s1 [Example 41, 5′-chloro-N-(5-methoxy-1,3,4-thiadiazol-2-yl)-2′,6-dimethyl-(4,4′-bipyridine)-3-carboxamide]"
3,≥ 6.70,"COc1nnc(NC(=O)c2cnc(CO)cc2-c2cc(Cl)ncc2OC)s1 [Example 64, 2′-chloro-6-(hydroxymethyl)-5′-methoxy-N-(5-methoxy-1,3,4-thiadiazol-2-yl)-(4,4′-bipyridine)-3-carboxamide]"

row,Structure (SMILES),pIC50
1,"COc1cnc(Cl)cc1-c1cc(C)ncc1C(=O)Nc1nnc(O[C@H]2C[C@H](O)C2)s1 [Example 16, 2′-chloro-N-(5-((1r,3r)-3-hydroxycyclobutoxy)-1,3,4-thiadiazol-2-yl)-5′-methoxy-6-methyl-(4,4′-bipyridine)-3-carboxamide]",≥ 6.70

# Same assay, conditions: Table 5; Pol theta (1-899) 5 nM, ATP, dT50 ssDNA
row,pIC50,Structure (SMILES)
1,≥ 6.70,"COc1cnc(Cl)cc1-c1cc(C)ncc1C(=O)Nc1nnc(O[C@H]2CCC[C@](C)(O)C2)s1 (racemic) [Example 178, rac-2′-chloro-N-(5-(((1R,3R)-3-hydroxy-3-methylcyclohexyl)oxy)-1,3,4-thiadiazol-2-yl)-5′-methoxy-6-methyl-(4,4′-bipyridine)-3-carboxamide]"
2,≥ 6.70,"COc1cnc(Cl)cc1-c1cc(C)ncc1C(=O)Nc1nnc(O[C@H]2CC[C@H](CO)CC2)s1 [Example 168, 2′-chloro-N-(5-(((1r,4r)-4-(hydroxymethyl)cyclohexyl)oxy)-1,3,4-thiadiazol-2-yl)-5′-methoxy-6-methyl-(4,4′-bipyridine)-3-carboxamide]"
3,≥ 6.70,"Cc1cc(-c2cc(Cl)ncc2OC(F)F)c(C(=O)Nc2nnc(O[C@H]3COC4(CC4)C3)s2)cn1 (single isomer, unassigned) [Example 233]"
4,≥ 6.70,"COc1cnc(Cl)cc1-c1cc(C)ncc1C(=O)Nc1nnc(O[C@H]2CC[C@H]([C@H](C)O)CC2)s1 (single isomer, unassigned) [Example 200]"
5,≥ 6.70,"COc1cnc(Cl)cc1-c1cc(C)ncc1C(=O)Nc1nnc(O[C@H]2C[C@@H]3CC[C@H]2O3)s1 (single isomer, unassigned) [Example 217]"
6,≥ 6.70,"COc1cnc(Cl)cc1-c1cc(C)ncc1C(=O)Nc1nnc(O[C@H]2CCO[C@@H]2C)s1 (racemic) [Example 93, rac-2′-Chloro-5′-methoxy-6-methyl-N-(5-(((2R,3S)-2-methyltetrahydrofuran-3-yl)oxy)-1,3,4-thiadiazol-2-yl)-(4,4′-bipyridine)-3-carboxamide]"
7,≥ 6.70,"COc1nnc(NC(=O)c2cnc(C)cc2-c2cc(Cl)c([S+](C)[O-])cc2OC)s1 (stereo not shown) [Example 231, 4-(5-chloro-2-methoxy-4-(methylsulfinyl)phenyl)-N-(5-methoxy-1,3,4-thiadiazol-2-yl)-6-methylnicotinamide]"
8,≥ 6.70,"COc1cnc(Cl)cc1-c1cc(C)ncc1C(=O)Nc1nnc(O[C@H]2CCC23COC3)s1 (single isomer, unassigned) [Example 136]"
9,≥ 6.70,"COc1cnc(Cl)c(F)c1-c1cc(C)ncc1C(=O)Nc1nnc(O[C@H]2CC[C@](C)(O)CC2)s1 (single isomer, unassigned) [Example 172, 2′-chloro-3′-fluoro-N-(5-(((1r,4r)-4-hydroxy-4-methylcyclohexyl)oxy)-1,3,4-thiadiazol-2-yl)-5′-methoxy-6-methyl-(4,4′-bipyridine)-3-carboxamide]"
10,≥ 6.70,"COc1cnc(C)c(F)c1-c1cc(C)ncc1C(=O)Nc1nnc(O[C@@H]2COC3(CC3)C2)s1 (single isomer, unassigned) [Example 207]"
11,≥ 6.70,"COc1cnc(Cl)cc1-c1cc(C)ncc1C(=O)Nc1nnc(O[C@@H]2CO[C@H](C)C2)s1 (single isomer, unassigned) [Example 189]"
12,≥ 6.70,"Cc1cc(-c2cc(Cl)ncc2OC(F)F)c(C(=O)Nc2nnc(O[C@H]3CC[C@H](O)CC3)s2)cn1 [Example 203, 2′-chloro-5′-(difluoromethoxy)-N-(5-(((1r,4r)-4-hydroxycyclohexyl)oxy)-1,3,4-thiadiazol-2-yl)-6-methyl-(4,4′-bipyridine)-3-carboxamide]"

row,Structure (SMILES),pIC50
1,"COc1cnc(Cl)cc1-c1cc(C)ncc1C(=O)Nc1nnc(O[C@H]2C[C@H](OC)C2)s1 (single isomer, unassigned) [Example 133, 2′-chloro-5′-methoxy-N-(5-((1r,3r)-3-methoxycyclobutoxy)-1,3,4-thiadiazol-2-yl)-6-methyl-(4,4′-bipyridine)-3-carboxamide]",≥ 6.70

# From patent US20240287080A1 (IDEAYA Biosciences Inc., priority 2021, published 2024)
